In US20230406883A1, “COMPOUNDS AND THEIR USE IN TREATMENT OF TACHYKININ RECEPTOR MEDIATED DISORDERS” (Embark Biotech ApS, priority 2020, published 2023):
Values joined by “and” are separate entries in the source; they are usually repeats but may differ in a detail not shown here. Identical values can stand only once. Like-named read-outs stand apart in the source and are kept apart here. Numbered stars: 1 amine (or outer) side, 2 acyl side, 3 side chain; on linkers, the order of the positions; unused ones are H or OH. Square brackets hold non-standard residues; d marks the D form. Peptide text beside a SMILES is read from it. * marks the point of attachment. C18 diacid = O=C(O)CCCCCCCCCCCCCCCCC(=O)*; γGlu = O=C(O)[C@H](CCC(=O)[*:2])N[*:1]; NMeL = CN[C@@H](CC(C)C)C(=O)O; hSer = N[C@@H](CCO)C(=O)O; Nle = CCCC[C@H](N)C(=O)O; AEEA = NCCOCCOCC(=O)O

Key:
hNK1R = target: T1, hNK1R (Homo sapiens, UniProt P25103); assay: IP3 assay (inositol trisphosphate, 3H-myoinositol) in transiently transfected COS-7 cells; format: cell-based; conditions: for EC50: 0.2% ovalbumin buffer
T1 construct: host or cells: COS-7
How it was run: (§1)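 COS-7 cells were transiently transfected with receptor plasmid and labelled with ³H-myo-inositol. Cells were lysed in formic acid, and ³H-inositol phosphates were captured on SPA YSI beads and counted.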

hNK2R = target: T2, hNK2R (Homo sapiens, UniProt P21452); assay: as above; format: cell-based; conditions: COS-7 cells; for EC50: 0.2% ovalbumin buffer; for hNK2R, IP3 Efficacy: figure legends: percent of 10^-6 M NKA
T2 construct: host or cells: COS-7
T2 sequence (P21452 1-398): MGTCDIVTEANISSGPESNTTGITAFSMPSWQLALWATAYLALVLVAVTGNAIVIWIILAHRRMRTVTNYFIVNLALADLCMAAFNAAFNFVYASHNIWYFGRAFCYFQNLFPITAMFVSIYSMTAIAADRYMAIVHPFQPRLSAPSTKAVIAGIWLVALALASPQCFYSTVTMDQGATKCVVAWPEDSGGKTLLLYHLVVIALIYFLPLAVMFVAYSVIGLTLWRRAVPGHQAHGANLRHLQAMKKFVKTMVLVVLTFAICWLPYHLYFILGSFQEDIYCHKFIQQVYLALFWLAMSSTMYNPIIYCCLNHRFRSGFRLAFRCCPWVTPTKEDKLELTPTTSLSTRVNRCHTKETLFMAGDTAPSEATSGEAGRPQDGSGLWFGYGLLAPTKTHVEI
How it was run: as §1

hNK3R = target: T3, hNK3R (Homo sapiens, UniProt P29371); assay: as above; format: cell-based; conditions: for EC50: 0.2% ovalbumin buffer, read-out: hNK3, IP3 EC50
T3 construct: host or cells: COS-7
T3 sequence (P29371 1-465): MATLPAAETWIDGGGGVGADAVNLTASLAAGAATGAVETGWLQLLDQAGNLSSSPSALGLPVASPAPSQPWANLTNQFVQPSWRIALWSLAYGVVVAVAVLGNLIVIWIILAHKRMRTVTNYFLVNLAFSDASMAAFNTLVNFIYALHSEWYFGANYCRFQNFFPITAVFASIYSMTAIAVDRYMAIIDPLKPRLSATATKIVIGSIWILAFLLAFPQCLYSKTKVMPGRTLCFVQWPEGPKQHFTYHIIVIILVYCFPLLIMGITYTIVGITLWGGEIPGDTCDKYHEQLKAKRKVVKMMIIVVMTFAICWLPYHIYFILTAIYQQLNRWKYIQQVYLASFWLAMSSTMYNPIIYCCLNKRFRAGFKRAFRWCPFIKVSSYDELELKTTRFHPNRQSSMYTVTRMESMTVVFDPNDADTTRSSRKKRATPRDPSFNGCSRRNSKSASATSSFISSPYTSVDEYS
How it was run: as §1

in vivo = assay: in vivo; design: species or system mice; conditions: mouse; for half-life: sc, 0.5 mg/kg
Procedure: Pharmacokinetics: To evaluate the in vivo half-life of individual peptide analogues we used wild type lean mice at around 10 weeks of age injected once with a peptide analogue. For each sample time point 3-4 mice were used and blood was drawn from the submandibular vein at indicated time points following injection. Prior to injection mice were given ad libitum access to standard chow diet. Mice were subcutaneously injected with 0.5 mg/kg peptide analogue in a volume of 2 ml/kg. The amount of peptide analogue and metabolite(s) present in blood samples were measured by TF-LC-MS and MetID-LC-MS, respectively. Sample preparation: One volume of plasma is precipitated with three volumes of ethanol (with internal standard). The mixture is centrifuged at 13000 g for 20 min. One volume of supernatant is diluted with two volumes of Milli-Q water (1% formic acid). Calibration curve: peptide analogue was spiked into blank mouse plasma. Range: 0.5 to 2000 nM (linear 1/x2).

[1] = COS-7 cells, figure legends: percent of 10^-6 M NKA

T1 sequence (P25103 whole entry): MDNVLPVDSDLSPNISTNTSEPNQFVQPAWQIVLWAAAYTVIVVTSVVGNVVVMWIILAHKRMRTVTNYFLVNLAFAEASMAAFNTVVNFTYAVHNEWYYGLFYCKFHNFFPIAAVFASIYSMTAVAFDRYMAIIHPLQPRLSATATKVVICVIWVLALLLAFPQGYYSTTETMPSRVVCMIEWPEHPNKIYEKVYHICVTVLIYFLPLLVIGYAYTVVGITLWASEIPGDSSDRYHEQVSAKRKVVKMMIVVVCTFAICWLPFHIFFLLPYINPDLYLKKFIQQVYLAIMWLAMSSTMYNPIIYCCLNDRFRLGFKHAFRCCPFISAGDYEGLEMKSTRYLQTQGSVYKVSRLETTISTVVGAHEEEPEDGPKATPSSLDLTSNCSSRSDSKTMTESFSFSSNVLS

hNK3, IP3 Efficacy (hNK3R) | EC50 (hNK3R; COS-7 cells) | hNK1R, IP3 Efficacy (hNK1R) | Plasma exposure [2 h] (in vivo) | Plasma exposure [26 h] (in vivo) | AUC (in vivo; 330 nmol/kg) | Cmax (in vivo; 330 nmol/kg) | Compound | EC50 (hNK1R; COS-7 cells) | hNK1R, IP3 Efficacy (hNK1R; [1]) | EC50 (hNK2R) | hNK2R, IP3 Efficacy (hNK2R) | hNK3, IP3 Efficacy (hNK3R; [1]) | half-life (in vivo; Half-life) | half-life (in vivo)
100% | 0.066 µM and 0.065 µM and 0.06 to 7 µM | – | – | – | – | – | CCCC[C@H](NC(=O)[C@H](CC(C)C)N(C)C(=O)CNC(=O)[C@@H](NC(=O)[C@H](Cc1ccccc1)NC(=O)[C@H](CCCCN)NC(=O)[C@H](CC(=O)O)NC(=O)COCCOCCNC(=O)COCCOCCNC(=O)CC[C@H](NC(=O)CCCCCCCCCCCCCCCCC(=O)O)C(=O)O)C(C)C)C(N)=O [compound 304, *Asp;Lys;Phe;Val;Gly;NmLeu;Nle;NH2] | 0.034 µM and 0.04 µM and 0.012 to 0.25 µM | 80% and 80-85% | 0.0021 µM and 0.001 to 0.011 µM | 90% and 100% and 80-90% | 65% and 60% and 85-100% | ≥ 10 h | –
– | ~0.73 µM and ~0.72 µM | 17-50% | 5.364 µM | 183 nM | 28.8 µM·h | 3.45 µM | CCCC[C@H](NC(=O)[C@H](CC(C)C)N(C)C(=O)CNC(=O)[C@@H](NC(=O)[C@H](Cc1ccc(O)cc1)NC(=O)[C@H](CCCCN)NC(=O)[C@H](CC(=O)O)NC(=O)COCCOCCNC(=O)COCCOCCNC(=O)CC[C@H](NC(=O)CCCCCCCCCCCCCCCCC(=O)O)C(=O)O)C(C)C)C(N)=O [compound 305, *Asp;Lys;Tyr;Val;Gly;NmLeu;Nle;NH2] ({C18 diacid-γGlu-AEEA-AEEA}-DKYVG[NMeL][Nle]-NH2) | 0.52 µM and 0.45 to 3.5 µM | 30% and ~30% | 0.0037 µM and 0.004 µM and 0.0022 to 0.013 µM | – | – | 5.5 h | –
– | – | – | – | – | – | – | COCC[C@H](NC(=O)[C@H](CC(C)C)N(C)C(=O)CNC(=O)[C@@H](NC(=O)[C@H](Cc1ccc(O)cc1)NC(=O)[C@H](CCCCN)NC(=O)[C@H](CC(=O)O)NC(=O)COCCOCCNC(=O)COCCOCCNC(=O)CC[C@H](NC(=O)CCCCCCCCCCCCCCCCC(=O)O)C(=O)O)C(C)C)C(N)=O [compound 344, *Asp;Lys;Tyr;Val;Gly;NmLeu;Metox;NH2] ({C18 diacid-γGlu-AEEA-AEEA}-DKYVG[NMeL][hSer](Me)-NH2) | ~0.16 µM | 30% and 50% and ~30% | 0.0022 µM and 0.0031 µM and 0.005 µM and 0.0032 µM | 90% and 100% and 110% | – | ≥ 10 h | 10.3 h

Compound | hNK3, IP3 Efficacy (hNK3R) | EC50 (hNK3R; COS-7 cells) | hNK1R, IP3 Efficacy (hNK1R) | Plasma exposure [2 h] (in vivo) | Plasma exposure [26 h] (in vivo) | AUC (in vivo; 330 nmol/kg) | Cmax (in vivo; 330 nmol/kg) | EC50 (hNK1R; COS-7 cells) | hNK1R, IP3 Efficacy (hNK1R; [1]) | EC50 (hNK2R) | hNK2R, IP3 Efficacy (hNK2R) | hNK3, IP3 Efficacy (hNK3R; [1]) | half-life (in vivo; Half-life) | half-life (in vivo)
COCC[C@H](NC(=O)[C@H](CC(C)C)N(C)C(=O)CNC(=O)[C@@H](NC(=O)[C@H](Cc1ccccc1)NC(=O)[C@H](CCCCN)NC(=O)[C@H](CC(=O)O)NC(=O)COCCOCCNC(=O)COCCOCCNC(=O)CC[C@H](NC(=O)CCCCCCCCCCCCCCCCC(=O)O)C(=O)O)[C@@H](C)O)C(N)=O [compound 383, *Asp;Lys;Phe;Thr;Gly;NmLeu;Metox;NH2] ({C18 diacid-γGlu-AEEA-AEEA}-DKFTG[NMeL][hSer](Me)-NH2) | – | 0.313 µM | – | – | – | – | – | 0.29 µM | 50% | 0.0016 µM | 95% | 60% | ≥ 10 h | –
